Data published in patent US20090227556A1, “RECEPTOR TYROSINE KINASE INHIBITORS COMPRISING PYRIDINE AND PYRIMIDINE DERIVATIVES” (Eisai R&D Management Co., Ltd., priority 2008, published 2009).
Blank lines part the entries; values can stand above or below the molecule they belong to.

Columns and labels:
[1] = system: human thyroid cancer cell line (TT); conditions: subcutaneous TT model; cited from earlier work
[2] = target: T1, VEGFR-2 tyrosine kinase (His6-VEGFR-2, cytoplasmic domain) (Homo sapiens, UniProt P35968); assay: Inhibitory activity on VEGFR-2 tyrosine kinase (HTRF); type: biochemical; conditions: biotin-poly(GT) substrate
T1 construct: made in house; host or cells: Sf9 insect cells (baculovirus, pFastBac-HT)
T1 sequence (P35968 786-1356 limits assumed): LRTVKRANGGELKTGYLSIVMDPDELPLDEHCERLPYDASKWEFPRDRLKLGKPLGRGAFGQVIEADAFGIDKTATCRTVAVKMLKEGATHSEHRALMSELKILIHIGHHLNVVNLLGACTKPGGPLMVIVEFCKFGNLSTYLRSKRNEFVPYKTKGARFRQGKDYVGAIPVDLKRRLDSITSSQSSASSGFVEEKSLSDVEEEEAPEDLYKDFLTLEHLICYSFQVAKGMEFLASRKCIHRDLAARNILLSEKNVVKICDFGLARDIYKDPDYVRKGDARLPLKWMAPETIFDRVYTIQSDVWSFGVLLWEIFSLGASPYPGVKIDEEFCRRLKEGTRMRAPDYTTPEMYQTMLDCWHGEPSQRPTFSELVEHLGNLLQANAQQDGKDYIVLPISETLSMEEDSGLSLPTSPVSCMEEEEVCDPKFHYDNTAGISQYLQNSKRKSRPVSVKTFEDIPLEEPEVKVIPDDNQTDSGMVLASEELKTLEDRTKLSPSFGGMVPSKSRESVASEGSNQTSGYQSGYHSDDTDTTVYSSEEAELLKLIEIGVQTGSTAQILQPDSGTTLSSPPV
From the text: Cytoplasmic domain of VEGFR-2 (Genbank Accession No. L04947) is a 1.7 kb DNA fragment starting from lysine 791 and contains a stop codon, as described by Tarman et al. (Oncogene, 6(9), 1677-1683, 1991). This DNA fragment was isolated from a human placental cDNA library (obtained from Clontech Laboratories, Inc.) with two primers (obtained from TaKaRa Ex Taq™ Kit, TaKaRa) using a PCR method. This DNA fragment was cloned into a baculovirus transplace vector (pFastBac™-HT (obtained from GIBCO BRL)), to obtain a recombinant construct. An insect cell (Spodoptera frugiperda 9 (Sf9)) was transfected with it, and a VEGFR-2 recombinant baculovirus solution was prepared (preparation of the recombinant baculovirus can be found in a standard textbook (Bac-to-Bac Baculovirus Expression System (GIBCO BRL)).
To Sf9 cells (3×10^8 cells) suspended in a SF-90011 culture medium containing 2% FBS (obtained from Invitrogen Corp.), the above mentioned recombinant VEGFR-2 baculovirus solution (4 ml) was added and incubated with shaking at 27° C. for 48 hours. The recombinant VEGFR-2 baculovirus-infected cell culture was centrifuged at 4° C. at 1000 rpm for 5 minutes, and the supernatant was removed. The precipitated infected cells were suspended in 80 ml of ice-cold PBS, the suspension was centrifuged at 4° C. at 1000 rpm for 5 minutes, and the supernatant was removed. The precipitated infected cells were suspended in 40 ml of ice-cold Lysis Buffer (50 mM Tris-HCl (pH 8.5), 5 mM 2-mercaptoethanol, 100 mM KCl, 1 mM PMSF, and 1% (v/v) NP-40). This suspension was centrifuged at 4° C. at 12,000 rpm for 30 min to obtain a supernatant.
This supernatant was added to a Ni-NTA agarose column (3 ml, obtained from Qiagen) which had been equilibrated with 30 ml of Buffer A (20 mM Tris-HCl (pH 8.5), 5 mM 2-mercaptoethanol, 500 mM KCl, 20 mM imidazole, and 10% (v/v) glycerol). This column was washed sequentially with 30 ml of Buffer A, 6 ml of Buffer B (20 mM Tris-HCl (pH 8.5), 5 mM 2-mercaptoethanol, 1M KCl, and 10% (v/v) glycerol), and 6 ml of Buffer A. Then, to this column, 6 ml of Buffer C (20 mM Tris-HCl (pH 8.5), 5 mM 2-mercaptoethanol, 100 mM KCl, 100 mM imidazole, and 10% (v/v) glycerol) was added to obtain an eluate. This eluate was poured into a dialysis membrane (obtained from Spectrum Laboratories) and dialyzed with 1 liter of dialysis buffer (20 mM Tris-HCl (pH 7.5), 10% (v/v) glycerol, 1 mM DTT, 0.1 mM Na3VO4, 0.1 mM EGTA) at 4° C. overnight and stored at −80° C. until use. After the dialysis, a part of the eluate was subjected to a SDS electrophoresis, and the recombinant protein (His 6-VEGFR-2, a cytoplasmic domain of VEGFR-2 fused with 6 histidine residues on its N-terminus) detected at about 100 kDa Mw in Coomassie Brilliant Blue staining was subjected to protein quantification using BSA (obtained from Sigma Co. Ltd.) as a standard.
In each well of a 96-well round bottom plate (obtained from NUNC, product number 163320), 10 μl of a solution for kinase reaction (200 mM Hepes (pH 7.4), 80 mM MgCl2, 16 mM MnCl2, 2 mM Na3VO4), 250 ng of biotin-conjugated poly (Glu 4: Tyr 1) (biotin-poly (GT) obtained from Nihon Schering K.K.) (6 μl of 1/15 diluted solution with distilled water), 15 ng of His6-VEGFR-2 (10 μl of a 1/240 diluted solution with a 0.4% BSA solution), and a test substance solution in dimethyl sulfoxide (4 μl of 1/100 dilution with 0.1% BSA) were added to make a total volume of 30 μl. To them, 10 μl of 4 μM ATP (obtained from Sigma Co. Ltd.) diluted with distilled water was added, and the resultant was incubated for 10 minutes at 30° C., followed by addition of 10 μl of 500 mM EDTA (pH 8.0) (obtained from Wako Pure Chemical Industries, Ltd.) to obtain a kinase reaction solution.
To detect tyrosine-phosphorylated biotin-poly (GT), the Homogenous Time-Resolved Fluorescence (HTRF) method was used (Analytical Biochemistry, 269, 94-104, 1999). […]

[3] = target: T2, KIT (Homo sapiens, UniProt P10721); assay: Inhibitory action on KIT (ELISA); type: biochemical; conditions: recombinant human kinase
T2 construct: purchased Carna Biosciences Inc. 08-156
T2 sequence (P10721 26-976): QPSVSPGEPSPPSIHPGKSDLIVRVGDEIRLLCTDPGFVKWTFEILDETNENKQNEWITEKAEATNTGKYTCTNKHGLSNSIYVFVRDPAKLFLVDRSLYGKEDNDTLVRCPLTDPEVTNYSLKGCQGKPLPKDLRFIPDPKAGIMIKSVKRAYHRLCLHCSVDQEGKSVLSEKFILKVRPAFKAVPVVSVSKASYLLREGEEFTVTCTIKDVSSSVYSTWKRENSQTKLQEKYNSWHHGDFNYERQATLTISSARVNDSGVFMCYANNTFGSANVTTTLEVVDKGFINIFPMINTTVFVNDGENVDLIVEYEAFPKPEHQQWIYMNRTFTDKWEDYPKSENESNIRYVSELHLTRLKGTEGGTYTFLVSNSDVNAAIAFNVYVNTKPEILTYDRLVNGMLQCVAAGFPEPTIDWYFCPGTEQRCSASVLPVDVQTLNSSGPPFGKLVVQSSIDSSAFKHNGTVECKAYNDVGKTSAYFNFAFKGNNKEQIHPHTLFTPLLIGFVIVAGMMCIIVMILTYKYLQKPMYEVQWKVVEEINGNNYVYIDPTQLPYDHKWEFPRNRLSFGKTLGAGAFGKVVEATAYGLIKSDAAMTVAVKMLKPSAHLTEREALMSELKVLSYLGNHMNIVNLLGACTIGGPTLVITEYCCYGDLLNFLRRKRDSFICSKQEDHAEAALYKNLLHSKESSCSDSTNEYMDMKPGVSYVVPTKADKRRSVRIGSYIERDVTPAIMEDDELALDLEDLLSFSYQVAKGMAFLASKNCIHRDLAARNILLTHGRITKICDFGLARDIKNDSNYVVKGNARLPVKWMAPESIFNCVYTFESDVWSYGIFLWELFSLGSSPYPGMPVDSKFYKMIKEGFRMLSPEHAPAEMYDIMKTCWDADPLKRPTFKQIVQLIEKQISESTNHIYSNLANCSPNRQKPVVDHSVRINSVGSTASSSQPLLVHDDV
Method: A test compound was dissolved in dimethyl sulfoxide to make a 10 mM solution, which was stored in a dark place at 4° C. until use.
Protein tyrosine kinases (recombinant human kinases) used in the study were the following products from Carna Biosciences Inc. (Kobe, Japan).
VEGFR-1 (FLT 1) (product number: 08-189) VEGFR-3 (FLT 4) (product number: 08-190) RON (product number: 08-152) RET (product number: 08-159) KIT (product number: 08-156)
Kinase activity was measured in a mobility shift assay (MSA) method (J. Biomolecular Screening, 11, 359-368, 2006) using QuickScout Screening Assist™ (Carna Biosciences Inc., commercial kit), and enzyme-linked immunoassay (ELISA).
10 μl of the test substance solution obtained by dissolving or suspending in the assay buffer (15 mM Tris, 0.01% Tween 20, 2 mM DTT, pH 7.5) (4× final concentration), or 10 μl of a solvent (4% dimethyl sulfoxide-assay buffer) was dispensed into a DELFIA Streptavidin-coated clear plate (PerkinElmer Inc., product number 4009-0010). Then, 10 μl of an ATP/substrate/metal solution of QuickScout Screening Assist™ ELISA was added. Additionally, 20 μl of the kinase solution diluted with the assay buffer was added to initiate a reaction. For a blank, only 20 μl of the assay buffer was added. The assay method was in accordance with the protocol of QuickScout Screening Assist™ ELISA. After the reaction, the absorbance at 450 nm in each well was measured using SpectraMax (Molecular Devices, California, U.S.A).

[4] = system: Human umbilical vein endothelial cells (HUVECs); assay: Growth inhibitory activity on human umbilical vein endothelial cells stimulated by VEGF; type: cell-based; conditions: HUVEC, 72 h, 3 days, Cell Counting Kit-8
Method: Human umbilical vein endothelial cells (HUVECs) were isolated according to the reported method (Shin-seikagaku jikken kouza “saibou baiyou gijutu (Cell culturing techniques)” p. 197-202) and incubated to confluence using an EGM-2 culture medium (obtained from Sanko Junyaku Co., Ltd.) in a 5% CO2 incubator (37° C.). The HUVECs were collected by a trypsin-EDTA treatment and washed with a culture medium (2% fetal bovine serum-supplemented Human endothelial SFM basal medium, obtained from Invitrogen Corp.), followed by suspending them in the medium to count the cell number. By diluting it with the medium, a 2×10^4 cells/ml cell suspension was prepared. The cell suspension was dispensed into a 96-well plate (obtained from FALCON) by 100 μl each, and incubated at 37° C. in a 5% CO2 incubator overnight. After the incubation, 50 μl of the test substance diluted with the medium was added to each well, and 50 μL of 80 ng/ml human recombinant VEGF (obtained from R&D systems, Inc.) diluted with the medium was added and further incubated for 3 days in the 5% CO2 incubator (37° C.). After the incubation, 20 μl of Cell Counting Kit-8 (obtained from DOJINDO Laboratories) was added to each well, which were incubated for about 2 hours in the 5% CO2 incubator (37° C.). After the incubation, the absorbance of the each well was measured using a plate reader MTP-500 (Corona Electric Co., Ltd) with a measurement wavelength of 450 nm and a control wavelength of 660 nm. A ratio of absorbance (%) of each well with the test substance against the wells without the test substance was determined, and based on this ratio, the concentration of the test substance required to inhibit 50% of cell proliferation (IC50) was determined and the results are shown in Table 2.

[5] = system: NIH3T3 cells transformed by mutated RET; conditions: cited from earlier work
[6] = system: NIH3T3 cells transformed by mutated RET; conditions: after injection of the cells to a nude mouse; cited from earlier work

Compound: CNC(=O)c1cc(Oc2ccc(NC(=O)Nc3ccc(Cl)c(C(F)(F)F)c3)cc2)ccn1 [BAY 43-9006]
tumor size [1]: reduced a tumor size

IC50 [2]: 240 nM
IC50 [3]: 100 nM
Compound: CN1CCN(C2CCN(C(=O)Nc3cc(Oc4ccc(NC(=O)C5(C(=O)Nc6ccc(F)cc6)CC5)c(F)c4)ccn3)CC2)CC1 [N-(2-Fluoro-4-{[2-({[4-(4-methylpiperazin-1-yl)piperidin-1-yl]carbonyl}amino)pyridin-4-yl]oxy}phenyl)-N′-(4-fluorophenyl)cyclopropane-1,1-dicarboxamide]
IC50 [4]: 82 nM

Compound: COc1cc2c(Nc3ccc(Br)cc3F)ncnc2cc1OCC1CCN(C)CC1 [ZD6474]
anchorage-independent growth [5]: suppressed anchorage-independent growth
tumorigenesis [6]: inhibited tumorigenesis
